SMILES strings stand for the structures. The source made the active and inactive calls. No cut-off for these calls is given here.

The test system of data set [1] is Escherichia coli. The experiment in a line: Antibacterial activity against Escherichia coli SK037 with Tn10 insertion inactivated TolC measured at 5 to 10 fold lower MIC within 2 hrs by broth dilution assay. The class given is functional, organism-based. Background: Broth dilution looks for growth in wells or tubes with falling amounts of substance.
A further data set concerns Bacillus thuringiensis. In words: Antibacterial activity against Bacillus thuringiensis HD73 assessed as complete inhibition of bacterial growth measured upto 24 hrs by broth dilution assay. The class given is functional. The settings on record: HD73, 24 h.
Data set [2] has as its system Escherichia coli. The experiment in a line: Antibacterial activity against Escherichia coli DH5[alpha] at 50 uM measured upto 24 hrs by broth dilution assay. The class given is functional, organism-based.
The subject of another data set is Listeria seeligeri. The experiment in a line: Antibacterial activity against Listeria seeligeri ATCC 35967 assessed as complete inhibition of bacterial growth measured upto 24 hrs by broth dilution assay. The format is functional. The settings on record: ATCC 35967, 24 h.
The nature of data set [3]: Induction of chloride efflux in egg yolk phosphatidylcholine large unilamellar vesicles assessed as increase of lucigenin's fluorescence at 6.25 %mol relative to EYPC. The class given is physicochemical.
Data set [4] has as its system Escherichia coli. In words: Antibacterial activity against Escherichia coli DH5[alpha] assessed as complete inhibition of bacterial growth measured upto 24 hrs by broth dilution assay. The class given is functional.
The nature of data set [5]: Hemolysis in human erythrocytes upto 100 uM after 1 hr. The format is ADME, cell-based, Erythrocyte. Particulars: read-out: Activity.
Another data set has as its system HEK-293T. The experiment in a line: Cytotoxicity against human HEK293T cells after 24 hrs by MTT assay. The class given is cell-based.
A short description of data set [6]: Induction of chloride efflux in egg yolk phosphatidylcholine large unilamellar vesicles assessed as increase of lucigenin's fluorescence relative to EYPC. The class given is physicochemical.
Data set [7] has as its system Escherichia coli. In words: Antibacterial activity against Escherichia coli SK037 with Tn10 insertion inactivated TolC at 50 uM measured upto 24 hrs by broth dilution assay. The format is functional, organism-based.
Data set [8] can be described thus: Hemolysis in human erythrocytes at 3 to 4 uM after 24 hrs. The format is ADME, cell-based, Erythrocyte. The settings on record: read-out: Activity.
The subject of data set [9] is Escherichia coli. In words: Antibacterial activity against Escherichia coli DH5[alpha] at 10 uM measured upto 24 hrs by broth dilution assay. The format is functional, organism-based.
Data set [10] concerns Escherichia coli. The experiment in a line: Antibacterial activity against Escherichia coli SK037 with Tn10 insertion inactivated TolC at 10 uM measured upto 24 hrs by broth dilution assay. The format is functional, organism-based.
The next data set concerns Alcaligenes faecalis. In words: Antibacterial activity against Alcaligenes faecalis ATCC 8750 assessed as complete inhibition of bacterial growth measured upto 24 hrs by broth dilution assay. The format is functional. The settings on record: ATCC 8750, 24 h.

The MIC is the lowest concentration found to suppress growth. The IC50 is the midpoint of a concentration-inhibition curve. Read a low IC50 as greater potency in that assay. Turning to `CCCCCCCC[n+]1ccn(Cc2cc3ccccc3c(-c3c(O)c(Cn4cc[n+](CCCCCCCC)c4)cc4ccccc34)c2O)c1.O=S(=O)([N-]S(=O)(=O)C(F)(F)F)C(F)(F)F.O=S(=O)([N-]S(=O)(=O)C(F)(F)F)C(F)(F)F`, the result with Escherichia coli [1], in the data set with Escherichia coli [7] and with Escherichia coli [10] was Active. For the same compound, the MIC with Bacillus thuringiensis was 4 µM; with Listeria seeligeri, 3 µM; in the data set on Escherichia coli [4], above 100 µM; in the data set with Alcaligenes faecalis, above 100 µM. The outcome in the data set with Escherichia coli [2] and in the data set with Escherichia coli [9] was inactive. Further, the Activity in data set [3] is reported as 68%. Moreover, in [5], the hemolysis at 1 h is below 10%. This compound returned an IC50 with HEK-293T of 11.7 µM. For the same compound, in data set [6], the EC50 is 4.62 %molar. The hemolysis at 24 h, up to 4 µM in data set [8] is below 15%.

Take `C[n+]1ccn(Cc2cc3ccccc3c(-c3c(O)c(Cn4cc[n+](C)c4)cc4ccccc34)c2O)c1.O=S(=O)([N-]S(=O)(=O)C(F)(F)F)C(F)(F)F.O=S(=O)([N-]S(=O)(=O)C(F)(F)F)C(F)(F)F`: the MIC in the data set with Bacillus thuringiensis, in the data set with Listeria seeligeri, with Escherichia coli [4] and in the data set on Alcaligenes faecalis was above 100 µM throughout. For the same compound, the EC50 entry in data set [6] is recorded as “Not Active”.

On to `CCCCCCCCCCCC[n+]1ccn(Cc2cc3ccccc3c(-c3c(O)c(Cn4cc[n+](CCCCCCCCCCCC)c4)cc4ccccc34)c2O)c1.O=S(=O)([N-]S(=O)(=O)C(F)(F)F)C(F)(F)F.O=S(=O)([N-]S(=O)(=O)C(F)(F)F)C(F)(F)F`, for which the MIC in the data set on Bacillus thuringiensis was 100 µM; in the data set with Listeria seeligeri, 25 µM; in the data set on Escherichia coli [4], above 100 µM; with Alcaligenes faecalis, above 100 µM. Besides, in data set [5], the hemolysis at 1 h is below 10%. Moreover, the IC50 with HEK-293T worked out at 9.2 µM. Also, in [6], the EC50 was 9.3 %molar.

As for `CCCC[n+]1ccn(Cc2cc3ccccc3c(-c3c(O)c(Cn4cc[n+](CCCC)c4)cc4ccccc34)c2O)c1.O=S(=O)([N-]S(=O)(=O)C(F)(F)F)C(F)(F)F.O=S(=O)([N-]S(=O)(=O)C(F)(F)F)C(F)(F)F`, the MIC in the data set with Bacillus thuringiensis is above 100 µM; in the data set on Listeria seeligeri, 30 µM; with Escherichia coli [4], above 100 µM; with Alcaligenes faecalis it was above 100 µM. The result in the data set on Escherichia coli [2] and with Escherichia coli [9] was inactive. For the same compound, in data set [5], the hemolysis at 1 h is below 10%. The IC50 in the data set with HEK-293T stood at 23.8 µM. For the same compound, the EC50 result in data set [6] was “Not Active”.

`CCCCCCCCCCCCCCCC[n+]1ccn(Cc2cc3ccccc3c(-c3c(O)c(Cn4cc[n+](CCCCCCCCCCCCCCCC)c4)cc4ccccc34)c2O)c1.O=S(=O)([N-]S(=O)(=O)C(F)(F)F)C(F)(F)F.O=S(=O)([N-]S(=O)(=O)C(F)(F)F)C(F)(F)F`: the MIC in the data set on Bacillus thuringiensis, with Listeria seeligeri, in the data set on Escherichia coli [4] and in the data set on Alcaligenes faecalis was above 100 µM in each case. Moreover, in data set [6], the EC50 came to 18.1 %molar.

These data come from ChEMBL document CHEMBL3132781, “Biologically active binaphthol-scaffolded imidazolium salts” (Medchemcomm, 2014).
